Patent EP4813381A1, “PHARMACEUTICAL USE OF GUAIANE SESQUITERPENE DERIVATIVE” (Nanjing University Of Chinese Medicine, priority 2023, dated 2025)

Experiments:
MDSCs = experiment: Inhibition of MDSC chemotaxis (Transwell, Hepa1-6 tumor-conditioned medium); format: cell-based, mice; settings: 12 h treatment, 24 h Transwell
Description: Hepa1-6 mouse hepatocellular carcinoma cells were uniformly seeded into 6-well plates. After cells reached confluence, supernatant was aspirated, and 1-1.5 mL fresh medium was added to each well. Following 24 h culture, supernatant was collected, centrifuged at 1600 rpm for 5 min, aspirated, and filtered through a 0.22 µm membrane to obtain tumor-conditioned medium for subsequent use. Euthanize mice by cervical dislocation and immerse in 75% ethanol solution for 5 min. Under sterile conditions, remove the tibia, cut both ends of the bone, and aspirate the bone marrow into a 1 mL syringe. Repeat flushing into a 15 mL centrifuge tube. Centrifuge at 1600 rpm for 5 min to collect bone marrow cells. Wash twice with 1×PBS. Resuspend cells in complete RPMI 1640 medium containing cytokines GM-CSF (10 ng/mL) and IL-4 (10 ng/mL) to stimulate differentiation into MDSCs. Count cells, adjust density to 1×10^6 cells/mL, and uniformly seed into 24-well plates at 300 µL per well. […] Centrifuge at 1600 rpm for 5 min, remove supernatant, resuspend cells in 300 µL fresh medium, and place into Transwell chambers. Add 600 µL normal medium (control group) or tumor-conditioned medium (model group) to the lower chamber. Co-culture for 24 h.

[1] = tested on: renal injury markers (Kim-1, Ngal), inflammatory factors (MCP-1, TNF-α); experiment: Diabetic nephropathy (DKD) mice: Q-PCR of kidney tissue; format: in vivo, C57/BL6J mice; settings: kidney mRNA, gavage 10 mg/kg
Description: Production license number: SCXK(Su)2023-0009. […] Animals were acclimated for 7 days before use in experiments.
Administer streptozotocin (STZ, 50 mg/kg) via intraperitoneal injection for 5 consecutive days. After 72 hours, select mice with fasting blood glucose levels exceeding 16.7 mmol/L as model mice. […] Model mice were fed a high-fat diet (HFD) providing 60% of energy from fat for 8 weeks. After 8 weeks, gavage administration commenced.
Specimen Collection: One hour after the last drug administration, enucleate the eyeball to collect blood. Allow blood to stand at room temperature for 2 hours, then centrifuge at 3000 rpm for 20 minutes. Aspirate the serum, aliquot it, and store at -70 °C for future use. After blood collection, euthanize the mice by cervical dislocation. Open the abdominal cavity, remove the kidneys, and dissect away the perirenal fat and capsule. Store the tissue at -70 °C for future use.
Additional primer information is as follows: Table 24. Additional Information on Q-PCR Primers

[2] = Conversion rate of salt-form prodrugs to parent compound in HEPES buffer solution; format: physicochemical; settings: conversion to Compound 1, HEPES buffer pH 7.4, 37 °C
In short: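 Salt-form prodrug dissolved in water was mixed 1:1 with HEPES buffer pH 7.4 (or mouse serum) and incubated at 37°C. Aliquots were quenched with methanol and centrifuged, and supernatants taken at 1, 2, 4, 8 and 12 h were analysed by HPLC. Conversion was followed by peak areas.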

Structure (SMILES) | Suppression Rate (%) (MDSCs; 1 µM) | Suppression Rate (%) (MDSCs; 10 µM) | Kim-1 [1] | Mcp-1 [1] | Ngal [1] | Tnf-α [1] | Release rate ([2]; 1 h) | Release rate ([2]; 2 h) | Release rate ([2]; 4 h) | Release rate ([2]; 8 h) | Release rate ([2]; 12 h)
C=C1C(=O)O[C@@H]2[C@@H]3[C@]4(CC[C@@]3(C)O)C[C@]4(C)CC[C@@H]12 [compound 1] | 42.3% | 83.3% | – | – | – | – | – | – | – | – | –
CN(C)C[C@@H]1C(=O)O[C@H]2[C@H]1CC[C@@]1(C)C[C@]13CC[C@@](C)(O)[C@H]23 [compound 20] | – | – | 0.64±0.10 | 1.40±0.22 | 0.96±0.13 | 0.96±0.13 | 6.2% | 13.8% | 21.7% | 44.3% | 59.1%
